Measured values taken from ChEMBL document CHEMBL1153186, “In vitro antitubercular and antimicrobial activities of 1-substituted quinoxaline-2,3(1H,4H)-diones” (2010).

Columns and labels:
Type in all cases: functional
Details in all cases: read-out: IZ
[1] = tested on: Staphylococcus aureus; assay: Antibacterial activity against Staphylococcus aureus at 100 ug/disk by agar plate disk diffusion method
[2] = tested on: Escherichia coli; assay: Antibacterial activity against Escherichia coli at 100 ug/disk by agar plate disk diffusion method
[3] = tested on: Proteus vulgaris; assay: Antibacterial activity against Proteus vulgaris at 100 ug/disk by agar plate disk diffusion method
[4] = tested on: Pseudomonas aeruginosa; assay: Antibacterial activity against Pseudomonas aeruginosa at 100 ug/disk by agar plate disk diffusion method
[5] = tested on: Aspergillus niger; assay: Antifungal activity against Aspergillus niger at 100 ug/disk by agar plate disk diffusion method
[6] = tested on: Candida albicans; assay: Antifungal activity against Candida albicans at 100 ug/disk by agar plate disk diffusion method
[7] = tested on: Staphylococcus aureus; assay: Antibacterial activity against Staphylococcus aureus at 50 ug/disk by agar plate disk diffusion method
[8] = tested on: Escherichia coli; assay: Antibacterial activity against Escherichia coli at 50 ug/disk by agar plate disk diffusion method
[9] = tested on: Proteus vulgaris; assay: Antibacterial activity against Proteus vulgaris at 50 ug/disk by agar plate disk diffusion method
[10] = tested on: Pseudomonas aeruginosa; assay: Antibacterial activity against Pseudomonas aeruginosa at 50 ug/disk by agar plate disk diffusion method
[11] = tested on: Aspergillus niger; assay: Antifungal activity against Aspergillus niger at 50 ug/disk by agar plate disk diffusion method
[12] = tested on: Candida albicans; assay: Antifungal activity against Candida albicans at 50 ug/disk by agar plate disk diffusion method

Row | Structure (SMILES) | zone of inhibition at 100 µg/disc [1] | zone of inhibition at 100 µg/disc [2] | zone of inhibition at 100 µg/disc [3] | zone of inhibition at 100 µg/disc [4] | zone of inhibition at 100 µg/disc [5] | zone of inhibition at 100 µg/disc [6] | zone of inhibition at 50 µg/disc [7] | zone of inhibition at 50 µg/disc [8] | zone of inhibition at 50 µg/disc [9] | zone of inhibition at 50 µg/disc [10] | zone of inhibition at 50 µg/disc [11] | zone of inhibition at 50 µg/disc [12]
1 | O=c1[nH]c2ccccc2n(CN(c2ccccc2)c2ccccc2)c1=O | 26 mm | 30 mm | 30 mm | 35 mm | 28 mm | 20 mm | – | – | – | – | – | –
2 | O=c1[nH]c2ccccc2n(Cn2cnc3ccccc32)c1=O | 36 mm | 33 mm | 32 mm | 35 mm | 25 mm | 18 mm | – | – | – | – | – | –
3 | CN(C)c1ccc(/C=C/C(=O)n2c(=O)c(=O)[nH]c3ccccc32)cc1 | 18 mm | 33 mm | 33 mm | 31 mm | 0 mm | 0 mm | – | – | – | – | – | –
4 | O=C1c2ccccc2C(=O)N1Cn1c(=O)c(=O)[nH]c2ccccc21 | 29 mm | 30 mm | 31 mm | 34 mm | 23 mm | 23 mm | – | – | – | – | – | –
5 | O=c1[nH]c2ccccc2n(Cn2nnc3ccccc32)c1=O | 29 mm | 39 mm | 34 mm | 39 mm | 28 mm | 20 mm | – | – | – | – | – | –
6 | CC1=NNC(=O)C1Cn1c(=O)c(=O)[nH]c2ccccc21 (stereo not given) | 33 mm | 37 mm | 32 mm | 39 mm | 23 mm | 21 mm | – | – | – | – | – | –
7 | O=C(/C=C/c1ccccc1)n1c(=O)c(=O)[nH]c2ccccc21 | 20 mm | 26 mm | 30 mm | 29 mm | 24 mm | 18 mm | – | – | – | – | – | –
8 | COc1cc(O)ccc1/C=C/C(=O)n1c(=O)c(=O)[nH]c2ccccc21 | 16 mm | 16 mm | 18 mm | 18 mm | 16 mm | 10 mm | – | – | – | – | – | –
9 | CCn1cc(C(=O)O)c(=O)c2ccc(C)nc21 [NALIDIXIC ACID] | – | – | – | – | – | – | 24 mm | 25 mm | 34 mm | 22 mm | – | –
10 | Clc1ccccc1C(c1ccccc1)(c1ccccc1)n1ccnc1 [CLOTRIMAZOLE] | – | – | – | – | – | – | – | – | – | – | 21 mm | 13 mm
11 | CC(=O)n1c(=O)c(=O)[nH]c2ccccc21 | 20 mm | 24 mm | 26 mm | 29 mm | 20 mm | 0 mm | – | – | – | – | – | –
